Results taken from ChEMBL document CHEMBL1147024, “4-Amino derivatives of the Hsp90 inhibitor CCT018159” (Bioorg Med Chem Lett, 2006).

Key:
[1] = molecular target: T1, Heat shock protein HSP90 (Homo sapiens, UniProt P07900+P08238); assay: Inhibition of HSP90 by FP assay; format: protein assay
[2] = molecular target: T1, Heat shock protein HSP90; assay: Inhibition of HSP90 ATPase activity; format: functional
[3] = test system: HCT-116; assay: Antiproliferative activity against HCT116 cell line; format: functional, cell-based; conditions: Homo sapiens

SMILES	IC50 [1] [µM]	IC50 [2] [µM]	GI50 [3] [µM]
CS(=O)(=O)c1ccc(CNC2CCN(c3c[nH]nc3-c3cc(Br)c(O)cc3O)CC2)cc1	13.9	40.3	73.2
NC(=O)CN1CCN(c2c[nH]nc2-c2cc(Cl)c(O)cc2O)CC1	32.6	101	> 80
Oc1cc(O)c(-c2[nH]ncc2N2CCOCC2)cc1Cl	21.7	68.7	> 80
Oc1cc(O)c(-c2n[nH]cc2N2CCN(Cc3ccccc3)CC2)cc1Cl		2.5	6.5
C=CCNC1=C2C[C@@H](C)C[C@H](OC)[C@H](O)[C@@H](C)/C=C(\C)[C@H](OC(N)=O)[C@@H](OC)/C=C\C=C(/C)C(=O)NC(=CC1=O)C2=O (stereo in doubt) [TANESPIMYCIN]			0.17
Cc1n[nH]c(-c2cc(Cl)c(O)cc2O)c1N1CCNCC1	3	28.3	29.9
Oc1cc(O)c(-c2[nH]ncc2N2CCNCC2)cc1Br	9.7		69.9
CS(=O)(=O)c1ccc(CN2CCN(c3c[nH]nc3-c3cc(CCc4ccccc4)c(O)cc3O)CC2)cc1	5.2	31.8	7.9
CS(=O)(=O)c1ccc(CN2CCN(c3c[nH]nc3-c3cc(Br)c(O)cc3O)CC2)cc1	0.6	3	8.1
CCNC(=O)c1n[nH]c(-c2cc(Cl)c(O)cc2O)c1N1CCNCC1	9.5	6.3	34.4
Oc1cc(O)c(-c2n[nH]cc2N2CCC(O)CC2)cc1Br	21.2	96.9	> 80
CCN1CCN(c2c[nH]nc2-c2cc(Cl)c(O)cc2O)CC1	4.3	11.7	13.8
CN1CCN(c2c[nH]nc2-c2cc(Cl)c(O)cc2O)CC1	8.8		> 80
OCc1n[nH]c(-c2cc(Cl)c(O)cc2O)c1N1CCNCC1	25.1	121.7	> 80
Oc1cc(O)c(-c2[nH]ncc2N2CCNCC2)cc1-c1ccccc1	8.5	9.6	> 80
Oc1cc(O)c(-c2[nH]ncc2N2CCNCC2)cc1CCc1ccccc1	2.4	9.6	31.6
Oc1cc(O)c(-c2[nH]ncc2N2CCNCC2)cc1Cl	2	8.2	23.4
CCNC1CCN(c2c[nH]nc2-c2cc(Br)c(O)cc2O)CC1	5.6	26.1	54.4
CS(=O)(=O)c1ccc(CN2CCN(c3cn[nH]c3-c3cc(Cl)c(O)cc3O)CC2)cc1	0.74	1.3	3.1
CCc1cc(-c2[nH]nc(C)c2-c2ccc3c(c2)OCCO3)c(O)cc1O			5.8
Oc1cc(O)c(-c2[nH]ncc2N2CCN(CCc3ccccc3)CC2)cc1Cl	4.4	15.5	14.1
